Experimental data: patent US12268694B2, “Combination pharmaceutical agents as RSV inhibitors” (Enanta Pharmaceuticals, Inc., priority 2017, dated 2025)
Like-named read-outs stand apart in the source and are kept apart here.

Tested on: genotype A, "Long" strain RSV
Assay: RSV-A assay: CPE protection in HEp-2 cells, ATPlite readout
Format: cell-based, human respiratory syncytial virus
Excerpt: HEp-2 cells, (originally derived from tumors grown in irradiated-cortisonised weanling rats that had been injected with epidermoid carcinoma tissue from a person's larynx, but later found to be indistinguishable from HeLa cells by PCR DNA analysis), were used for the culturing of genotype A, “Long” strain RSV. Flasks were inoculated with RSV and viral stocks were collected once cytopathic effect (CPE) was greater than 90%. Viral stocks in 25% sucrose media were snap frozen using liquid nitrogen to increase viral stability. Viral stock titers were quantified by tissue culture infectious dose 50% (TCID50) using 8,000 cells per well and 3-fold viral dilutions across a 96-well plate, cultured for 4 days. Viral stock titers were also quantified by a plaque forming unit assay, as described elsewhere.
Following extensive parameter testing, the final assay is run as follows: HEp-2 cells are seeded into the inner 60 wells of a 96-well plate at 8,000 cells per well in a volume of 50 μL using Growth Media (DMEM without phenol red, 1% L-Glut, 1% Penn/Strep, 1% nonessential amino acids, 10% heat-inactivated FBS). 2-fold serial dilutions of control and test compounds are added to the wells in duplicate in a total volume of 25 μL. Viral stock is then added to the wells at a multiplicity of infection (MOI) of 0.1 in a volume of 25 μL, bringing the total volume of each well to 100 μL. The MOI is calculated using the PFU/mL, or TCID50 if unavailable. Each 96-well plate has a control column of 6 wells with cells and virus but no compound (negative control, max CPE), a column with cells but no compound or virus (positive control, minimum CPE), and a column with no cells or virus or compound (background plate/reagent control). The control wells with cells but no virus are given an additional 25 μL of growth media containing an equal quantity of sucrose as those wells receiving the viral stock in order to keep consistent in media and volume conditions. The outer wells of the plate are filled with 125 μL of moat media (DMEM, 1% Penn/Strep) to act as a thermal and evaporative moat around the test wells. Following a 5-day incubation period, the plates are read using ATPlite (50 μL added per well), which quantifies the amount of ATP (a measure of cell health) present in each well. Assay plates are read using the Envision luminometer. In parallel, cytotoxicity is examined on an additional 96-well plate treated in an identical manner, but substituting the 25 μL of viral stock for 25 μL of growth media. […] EC50 ranges are as follows: A <0.4 μM; B 0.4-0.8 μM; C >0.8 μM and CC50 ranges are as follows: A >50 μM; B 10-50 μM; C <10 μM.

[1] = human respiratory syncytial virus, HEp-2, read-out: Human RSV-A (“Long” strain) EC50
[2] = HEp-2 cells, RSV-A Long strain, ATPlite readout, read-out: Human RSV-A (“Long” strain) EC50

SMILES | EC50 [1] [nM] | EC50 [2] [nM]
Cn1cc(N2CCOCC2)c(-c2nnc(N[C@H]3N=C(c4ccccc4)c4ccccc4NC3=O)o2)n1 [Example 164] | < 400 | –
O=C1Nc2ccccc2C(c2ccccc2)=N[C@@H]1Nc1nnc(-c2cnc(N3CCOCC3)nc2)o1 [Example 165] | 400 to 800 | –
O=C1Nc2ccccc2C(c2ccccc2)=N[C@@H]1Nc1nnc(-c2cnc(N3CC4CCC(C3)O4)nc2)o1 [Example 166] | > 800 | –
O=C1Nc2ccccc2C(c2ccccc2)=N[C@@H]1Nc1nnc(-c2cnc(C3CC3)nc2N2CCOCC2)o1 [Example 167] | < 400 | –
O=C1Nc2ccccc2C(c2ccccc2)=NC1Nc1nnc(-c2c(F)cc(F)cc2N2CCOCC2)o1 (centres unmarked) [Example 170] | – | > 800
O=C1Nc2ccccc2C(c2ccccc2)=NC1Nc1nnc(-c2c(F)cc(F)cc2N2CCOCC2)o1 (centres unmarked) [Example 171] | – | > 800
O=C1Nc2ccccc2C(c2ccccc2)=N[C@@H]1Nc1nnc(-c2cnc(-n3cccn3)nc2N2CCOCC2)o1 [Example 172] | > 800 | –
O=C1Nc2ccccc2C(c2ccccc2)=N[C@@H]1Nc1nnc(-c2cnc(-n3cncn3)nc2N2CCOCC2)o1 [Example 173] | > 800 | –
N#Cc1cnc(N2CCOCC2)c(-c2nnc(N[C@H]3N=C(c4ccccc4)c4ccccc4NC3=O)o2)c1 [Example 174] | < 400 | –
CCc1nc(N2CCOCC2)c(-c2nnc(N[C@H]3N=C(c4ccccc4)c4ccccc4NC3=O)o2)cc1C#N [Example 176] | < 400 | –
Cn1ncc(-c2nnc(N[C@H]3N=C(c4ccccc4)c4ccccc4NC3=O)o2)c1N1CCOCC1 [Example 177] | > 800 | –
Cn1ncc(N2CCOCC2)c1-c1nnc(N[C@H]2N=C(c3ccccc3)c3ccccc3NC2=O)o1 [Example 178] | 400 to 800 | –
O=C1Nc2ccccc2C(c2ccccc2)=N[C@@H]1Nc1nnc(-c2sc3ncccc3c2N2CCOCC2)o1 [Example 180] | < 400 | –
Cn1cc(-c2nnc(N[C@H]3N=C(c4ccccc4)c4ccccc4NC3=O)o2)c(N2CCOCC2)n1 [Example 181] | < 400 | –
O=C1Nc2ccccc2C(c2ccccc2)=N[C@@H]1Nc1nnc(-c2sc(Br)cc2N2CCOCC2)o1 [Example 182] | < 400 | –
N#Cc1ccc(-c2nnc(NC3N=C(c4ccccc4)c4ccccc4NC3=O)o2)s1 (centres unmarked) [Example 183] | < 400 | –
O=C1Nc2ccccc2C(c2ccccc2)=NC1Nc1nnc(-c2ccc(N3CCCC3)cc2)o1 (centres unmarked) [Example 184] | 400 to 800 | –
COc1cnc(-c2nnc(NC3N=C(c4ccccc4)c4ccccc4NC3=O)o2)c(F)c1 (centres unmarked) [Example 185] | > 800 | –
Cn1nnc(-c2ccc(-c3nnc(NC4N=C(c5ccccc5)c5ccccc5NC4=O)o3)cc2)n1 (centres unmarked) [Example 186] | > 800 | –
Cc1nc2ccc(-c3nnc(NC4N=C(c5ccccc5)c5ccccc5NC4=O)o3)cc2s1 (centres unmarked) [Example 187] | 400 to 800 | –
CC(C)c1nnc(NC2N=C(c3ccccc3)c3ccccc3NC2=O)o1 (centres unmarked) [Example 188] | > 800 | –
CC(C)(C)c1nnc(NC2N=C(c3ccccc3)c3ccccc3NC2=O)o1 (centres unmarked) [Example 189] | > 800 | –

SMILES | EC50 [1] [nM] | EC50 [2] [nM]
CCCc1nnc(NC2N=C(c3ccccc3)c3ccccc3NC2=O)o1 (centres unmarked) [Example 190] | > 800 | –
COCc1nnc(NC2N=C(c3ccccc3)c3ccccc3NC2=O)o1 (centres unmarked) [Example 191] | > 800 | –
O=C1Nc2ccccc2C(c2ccccc2)=NC1Nc1nnc(CCC(F)(F)F)o1 (centres unmarked) [Example 192] | > 800 | –
N#CCCc1nnc(NC2N=C(c3ccccc3)c3ccccc3NC2=O)o1 (centres unmarked) [Example 193] | > 800 | –
CS(=O)(=O)Cc1nnc(NC2N=C(c3ccccc3)c3ccccc3NC2=O)o1 (centres unmarked) [Example 194] | > 800 | –
CC1(c2nnc(NC3N=C(c4ccccc4)c4ccccc4NC3=O)o2)CC1 (centres unmarked) [Example 195] | > 800 | –
O=C1Nc2ccccc2C(c2ccccc2)=NC1Nc1nnc(C2CCC2)o1 (centres unmarked) [Example 196] | > 800 | –
O=C1Nc2ccccc2C(c2ccccc2)=NC1Nc1nnc(C2CCCC2)o1 (centres unmarked) [Example 197] | > 800 | –
O=C1Nc2ccccc2C(c2ccccc2)=NC1Nc1nnc([C@H]2CCCO2)o1 (some centres unmarked) [Example 198] | > 800 | –
O=C1Nc2ccccc2C(c2ccccc2)=NC1Nc1nnc(CCc2ccccc2)o1 (centres unmarked) [Example 199] | > 800 | –
Cc1nc(-c2nnc(NC3N=C(c4ccccc4)c4ccccc4NC3=O)o2)ccc1C#N (centres unmarked) [Example 200] | 400 to 800 | –
CN1C(=O)C(Nc2nnc(-c3ccc(F)cc3)o2)N=C(c2ccccc2)c2ccccc21 (centres unmarked) [Example 201] | > 800 | –
O=C1Nc2ccccc2C(c2ccccc2)=NC1Nc1nnc(-c2ccc(-n3ccc(C(F)(F)F)n3)cc2)o1 (centres unmarked) [Example 202] | > 800 | –
O=C1Nc2ccccc2C(c2ccccc2)=NC1Nc1nnc(CC(F)(F)F)o1 (centres unmarked) [Example 203] | > 800 | –
O=C1Nc2ccccc2C(c2ccccc2)=NC1Nc1nnc(C2(F)CC2)o1 (centres unmarked) [Example 204] | > 800 | –
CC1(C)C[C@@H]1c1nnc(NC2N=C(c3ccccc3)c3ccccc3NC2=O)o1 (some centres unmarked) [Example 205] | > 800 | –
CC1(C)CC(c2nnc(NC3N=C(c4ccccc4)c4ccccc4NC3=O)o2)C1 (centres unmarked) [Example 206] | > 800 | –
O=C1Nc2ccccc2C(c2ccccc2)=NC1Nc1nnc([C@@H]2CCCO2)o1 (some centres unmarked) [Example 207] | > 800 | –
CC(C)(Cc1ccccc1)c1nnc(NC2N=C(c3ccccc3)c3ccccc3NC2=O)o1 (centres unmarked) [Example 208] | > 800 | –
CN(c1nnc(-c2ccc(F)cc2)o1)C1N=C(c2ccccc2)c2ccccc2NC1=O (centres unmarked) [Example 209] | > 800 | –
CN1CCN(c2ccc(-c3nnc(NC4N=C(c5ccccc5)c5ccccc5NC4=O)o3)cc2)CC1 (centres unmarked) [Example 210] | > 800 | –
O=C1Nc2ccccc2C(c2ccccc2)=NC1Nc1nnc(-c2cccc(-n3ccnc3)c2)o1 (centres unmarked) [Example 212] | > 800 | –

SMILES | EC50 [1] [nM] | EC50 [2] [nM]
CC(C)(O)c1nnc(NC2N=C(c3ccccc3)c3ccccc3NC2=O)o1 (centres unmarked) [Example 213] | > 800 | –
O=C1Nc2ccccc2C(c2ccccc2)=NC1Nc1nnc(C2CC(F)(F)C2)o1 (centres unmarked) [Example 214] | > 800 | –
O=C1Nc2ccccc2C(c2ccccc2)=NC1Nc1nnc(C2CCOC2)o1 (centres unmarked) [Example 215] | > 800 | –
O=C1Nc2ccccc2C(c2ccccc2)=NC1Nc1nnc(-c2ccc(-n3cncn3)c(F)c2)o1 (centres unmarked) [Example 216] | 400 to 800 | –
Cc1cc(-c2nnc(NC3N=C(c4ccccc4)c4ccccc4NC3=O)o2)ccc1-n1cncn1 (centres unmarked) [Example 217] | 400 to 800 | –
Cc1cc(-n2cncn2)ccc1-c1nnc(NC2N=C(c3ccccc3)c3ccccc3NC2=O)o1 (centres unmarked) [Example 218] | > 800 | –
COc1cc(-c2nnc(NC3N=C(c4ccccc4)c4ccccc4NC3=O)o2)ccc1-n1cnc(C)c1 (centres unmarked) [Example 219] | > 800 | –
O=C1Nc2ccccc2C(c2ccccc2)=NC1Nc1nnc(-c2ccc(OC3CCOCC3)cc2)o1 (centres unmarked) [Example 220] | > 800 | –
O=C1Nc2ccccc2C(c2ccccc2)=NC1Nc1nnc(C2CC3(CCNCC3)C2)o1 (centres unmarked) [Example 222] | > 800 | –
CC1(c2nnc(NC3N=C(c4ccccc4)c4ccccc4NC3=O)o2)CCNC1 (centres unmarked) [Example 223] | > 800 | –
O=C1Nc2ccccc2C(c2ccccc2)=NC1Nc1nnc(-c2ccc(-n3cncn3)nc2)o1 (centres unmarked) [Example 225] | > 800 | –
O=C1Nc2ccccc2C(c2ccccc2)=NC1Nc1nnc(-c2ccccc2-c2ccncc2)o1 (centres unmarked) [Example 226] | > 800 | –
O=C1Nc2ccccc2C(c2ccccc2)=NC1Nc1nnc([C@@H]2CCCN2C2CCNCC2)o1 (some centres unmarked) [Example 227] | > 800 | –
CN1CCC(N2CCC[C@H]2c2nnc(NC3N=C(c4ccccc4)c4ccccc4NC3=O)o2)CC1 (some centres unmarked) [Example 228] | > 800 | –
COCCOc1ccccc1-c1nnc(NC2N=C(c3ccccc3)c3ccccc3NC2=O)o1 (centres unmarked) [Example 229] | > 800 | –
CC1(Nc2nnc(-c3ccc(F)cc3)o2)N=C(c2ccccc2)c2ccccc2NC1=O (centres unmarked) [Example 230] | > 800 | –
O=C1Nc2ccccc2C(c2ccccc2)=NC1Nc1nnc(-c2ccc(-n3ccnc3)cc2)o1 (centres unmarked) [Example 231] | < 400 | –
O=C1Nc2ccccc2C(c2ccccc2)=NC1Nc1nnc(-c2ccc(-n3ccnc3)nc2)o1 (centres unmarked) [Example 232] | > 800 | –
O=C1Nc2ccccc2C(c2ccccc2)=NC1Nc1nnc(-c2ccc(-n3cnnc3)cc2)o1 (centres unmarked) [Example 233] | > 800 | –
CN(C)CCOc1ccccc1-c1nnc(NC2N=C(c3ccccc3)c3ccccc3NC2=O)o1 (centres unmarked) [Example 234] | > 800 | –
COCCOc1ccc(-c2nnc(NC3N=C(c4ccccc4)c4ccccc4NC3=O)o2)cc1 (centres unmarked) [Example 236] | > 800 | –
